Assays:
[1] = target: T1, DDR1 (Homo sapiens, UniProt Q08345); design: purchased Reaction Biology Corporation (RBC, Malvern, PA, USA); conditions: cited from earlier work
[2] = target: T1, DDR1; assay: RBC radiometric HotSpot kinase assay, DDR1; conditions: read-out: % Inhibition at 10 μM (SEM) DDR1
Description: (§1) All compounds in this study were tested against DDR1 and DDR2 at a 10 µM dose at Reaction Biology Corporation (RBC, Malvern, PA, USA) employing the radiometric HotSpot Kinase assay protocol (Table 1).

[3] = target: T2, DDR2 (Homo sapiens, UniProt Q16832); assay: RBC radiometric HotSpot kinase assay, DDR2; conditions: for inhibition at 10 µM: read-out: % Inhibition at 10 μM (SEM) DDR2
T2 sequence (Q16832 22-855): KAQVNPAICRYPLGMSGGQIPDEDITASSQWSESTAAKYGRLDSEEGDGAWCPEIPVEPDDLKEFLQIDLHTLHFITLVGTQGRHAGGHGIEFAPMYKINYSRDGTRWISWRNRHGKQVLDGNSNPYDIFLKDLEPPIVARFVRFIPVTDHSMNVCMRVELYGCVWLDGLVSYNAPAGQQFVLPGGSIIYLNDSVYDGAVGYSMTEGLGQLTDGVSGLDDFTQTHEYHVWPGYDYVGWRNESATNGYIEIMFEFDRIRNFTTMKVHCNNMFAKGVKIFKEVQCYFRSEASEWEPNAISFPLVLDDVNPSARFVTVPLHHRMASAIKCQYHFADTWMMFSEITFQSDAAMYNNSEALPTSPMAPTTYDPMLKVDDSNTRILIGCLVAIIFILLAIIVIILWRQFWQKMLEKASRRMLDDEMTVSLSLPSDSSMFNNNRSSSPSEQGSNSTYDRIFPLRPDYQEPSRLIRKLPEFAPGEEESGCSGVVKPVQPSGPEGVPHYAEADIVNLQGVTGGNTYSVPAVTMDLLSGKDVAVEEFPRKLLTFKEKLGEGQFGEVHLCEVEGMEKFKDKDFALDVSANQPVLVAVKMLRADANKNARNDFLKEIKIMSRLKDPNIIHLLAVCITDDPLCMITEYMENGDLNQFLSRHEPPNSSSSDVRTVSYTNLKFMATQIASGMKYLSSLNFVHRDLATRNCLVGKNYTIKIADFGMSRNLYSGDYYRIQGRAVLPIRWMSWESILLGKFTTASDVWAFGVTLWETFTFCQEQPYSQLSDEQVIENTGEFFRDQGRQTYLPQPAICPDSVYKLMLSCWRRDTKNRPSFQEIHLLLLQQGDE
Description: as §1

[4] = system: A549 non-small cell lung cancer cells; conditions: reported data ref 20; cited from earlier work
[5] = system: T47D breast cancer cells; conditions: reported data ref 20; cited from earlier work
[6] = system: HCT116 colon cancer cells; conditions: reported data ref 20; cited from earlier work

T1 sequence (Q08345 19-913): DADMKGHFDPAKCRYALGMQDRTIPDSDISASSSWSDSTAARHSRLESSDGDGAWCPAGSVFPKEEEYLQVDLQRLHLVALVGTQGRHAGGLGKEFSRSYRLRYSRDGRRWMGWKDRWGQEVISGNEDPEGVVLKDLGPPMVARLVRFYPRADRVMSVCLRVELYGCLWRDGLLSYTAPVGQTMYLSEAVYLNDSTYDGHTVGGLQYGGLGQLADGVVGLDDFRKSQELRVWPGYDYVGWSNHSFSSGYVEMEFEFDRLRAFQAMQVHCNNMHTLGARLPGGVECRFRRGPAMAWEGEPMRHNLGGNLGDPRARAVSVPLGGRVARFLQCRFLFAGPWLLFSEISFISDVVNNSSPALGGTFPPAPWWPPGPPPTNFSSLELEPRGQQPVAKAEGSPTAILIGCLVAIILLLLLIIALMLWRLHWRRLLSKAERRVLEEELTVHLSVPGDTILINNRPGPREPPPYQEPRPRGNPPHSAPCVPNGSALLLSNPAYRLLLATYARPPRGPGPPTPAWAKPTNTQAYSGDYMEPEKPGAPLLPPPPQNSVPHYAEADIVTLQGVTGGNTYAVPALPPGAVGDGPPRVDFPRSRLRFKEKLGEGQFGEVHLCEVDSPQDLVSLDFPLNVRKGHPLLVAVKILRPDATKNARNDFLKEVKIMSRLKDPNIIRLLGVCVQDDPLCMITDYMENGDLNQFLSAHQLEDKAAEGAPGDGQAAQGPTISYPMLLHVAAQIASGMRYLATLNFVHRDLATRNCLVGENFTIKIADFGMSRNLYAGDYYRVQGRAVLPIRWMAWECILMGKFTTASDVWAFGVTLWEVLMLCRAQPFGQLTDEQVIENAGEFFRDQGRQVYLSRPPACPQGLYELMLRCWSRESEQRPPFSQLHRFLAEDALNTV

SMILES	inhibition at 10 µM [2] [%]	inhibition at 10 µM [3] [%]	other results
O=C(Nc1cccc(Cl)c1)Nc1cc2ncncc2cc1OCc1cccc(F)c1 [KST9046]	–	–	IC50 [1]: 4.38 µM
Cn1ccc(-c2cncc(CNc3cc(C(=O)Nc4cccc(OC(F)(F)F)c4)ccc3F)c2)n1 [VU6015929, reference compound]	–	–	IC50 [3]: 1.55 nM
CCN1CCN(Cc2ccc(C(=O)Nc3ccc(C)c(Oc4ccc5c(c4)CC(=O)N5)c3)cc2C(F)(F)F)CC1 [DDR1-IN-1]	–	–	GI50 [4]: > 10 µM; IC50 [3]: 59.7 nM; GI50 [5]: > 10 µM; GI50 [6]: 8.7 µM
Cc1cc(C)cc(NC(=O)Nc2ccc3oc(=O)ccc3c2)c1 [Compound 3k]	33.8	17.3	–
CCCCOc1ccc(NC(=O)Nc2ccc3oc(=O)ccc3c2)cc1 [Compound 3f]	10.6	5.52	–

Further lines, with some results ahead:

inhibition at 10 µM [2] [%]	inhibition at 10 µM [3] [%]	SMILES	other results
5.83	0.78	O=C(Nc1ccc2oc(=O)ccc2c1)Nc1ccc(F)cc1F [Compound 3m]	–
12.6	6.06	O=C(Nc1ccc2oc(=O)ccc2c1)c1cc(C(F)(F)F)cc(C(F)(F)F)c1 [Compound 4b]	–
23.1	7.53	O=C(Nc1ccc(Br)cc1)Nc1ccc2oc(=O)ccc2c1 [Compound 3d]	–
5.82	3.77	O=C(Nc1ccc2oc(=O)ccc2c1)c1ccc(Cl)c(C(F)(F)F)c1 [Compound 4a]	–
25.6	15.9	O=C(Nc1ccc(F)cc1)Nc1ccc2oc(=O)ccc2c1 [Compound 3c]	–
22.4	17	O=C(Nc1ccc2oc(=O)ccc2c1)c1cc(F)cc(F)c1 [Compound 4c]	–
19	17.1	O=C(Nc1ccc2oc(=O)ccc2c1)Nc1ccc(Cl)cc1Cl [Compound 3l]	–
